Results published in patent US11246308B2, “Ice-free preservation of large volume tissue samples for viable, functional tissue banking” (TISSUE TESTING TECHNOLOGIES LLC, priority 2016, dated 2022).

What was measured:
[1] = visible ice formation during cooling and rewarming, 1st set of experiments; format: physicochemical; settings: for visible ice formation: 0.6M sugar in both DP6 and VS49 formulations; for ice formation during cooling and rewarming: in the presence of the sugar, with nanowarming
Experimental: (§1) In the following ice-free cryopreservation formulation supplementation experiments, disaccharides (trehalose and sucrose) are added to various vitrification formulations (VS49, DP6, and VS55) in the amounts shown in FIG. 1 and compared to a solution (without trehalose and/or sucrose) to access the effectiveness at inhibiting ice formation in various tissues.
(§2) Tissues were gradually infiltrated with VS55 consisting of 3.10 M DMSO, 3.10M formamide, and 2.21 M propylene glycol in Euro-Collins solution at 4° C. using methods previously described for blood vessel vitrification, a dilution of VS55 to VS49 or DP6 consisting of 3 M DMSO, 3 M propylene glycol. Precooled dilute vitrification solutions (4° C.) are added in five sequential 15-min steps of increasing concentration on ice. The last cryoprotectant concentration with mNPs was added in a final sixth addition step in either precooled −10° C. or 4° C. full strength vitrification solution and kept in a −10° C. bath for 15 minutes or at 4° C. on ice in plastic tubes. The samples were then cooled in two steps, first rapid cooling to −100° C. by placing in a precooled 2-methylbutane bath at −135° C. and then by transfer to vapor phase nitrogen storage for slower cooling to below −135° C. Finally, the samples were stored below −130° C. in vapor phase nitrogen for at least 24 h before testing.
(§3) Warming was performed by either convection warming or nanowarming. Convection warming is a two-stage process including slow warming to −100° C. and then as rapid as possible warming to melting. The slow warming rate is created by taking the sample to the top of the −135° C. freezer and the […] warming rate is generated by placing the plastic container in the mixture of 30% DMSO/H2O at room temperature. After rewarming, the vitrification solution was removed in a stepwise manner on ice to keep the tissues cold and minimize cytotoxicity due to the presence of residual cryoprotectants.

[2] = system: heart valve tissues (pulmonary artery, leaflet and cardiac muscle); experiment: alamarBlue metabolic activity of heart valve tissues vitrified in 4 mL of solution (FIG. 1); format: cell-based; settings: for leaflet viability: 4 mL; for leaflet viability / tissue viability: p<0.05; for post-vitrification viability: 0.6M sugar in DP6, VS49 and VS55; for tissue viability: trehalose and sucrose supplementation of vitrification formulations (VS49, DP6, VS55), compared with no additive controls, N=6
Experimental: as §1
Data shown in % of control VS55 results performed with the final cryoprotectant concentration added at 4° C., N=6, *p<0.05 by ANOVA or #T-test compared with no additive controls.
In this experiment, addition of either 600 mM trehalose or sucrose to VS49, DP6 and VS55 formulations was compared. The tissues were vitrified in 4 mL of solution. Trehalose supplementation increased leaflet viability in VS49 and VS55. Sucrose supplementation increased leaflet viability in all three formulations. […] This led to plans to test DP6 with sugars more thoroughly in later experiments. Repetitive experiments were performed using sucrose supplemented VS55 and obtained outcomes similar to those for supplemented VS55 shown here.
Bonafide excess heart valves or blood vessels were obtained from animals employed in other IACUC approved research studies or from a food processing plant post-mortem. The tissues were dissected, rinsed and placed in sterile cups with ice-cold tissue culture medium containing antibiotics overnight and then allocated for in vitro studies. The heart valve tissues in FIG. 1 each consisted of a piece of tissue consisting of pulmonary artery, leaflet and cardiac muscle. They were separated and individually assayed for viability using an assay that assesses metabolic activity that is described below.
as §2, §3
Metabolic Activity—An alamarBlue™ assay will be used to evaluate the metabolic activity of control and treated tissue samples. Tissues were incubated in 2 ml of DMEM+10% FBS culture medium for one hour to equilibrate followed by the addition of 20% AlamarBlue under standard cell culture conditions for 3 hours. AlamarBlue is a non-toxic fluorometric indicator based on detection of metabolic activity. Fluorescence was measured at an excitation wavelength of 544 nm and an emission wavelength of 590 nm. […] Control and experimental tissues were dried at the end of each experiment, weighed, and results expressed as relative fluorescence units (RFU)/mg tissue dry weight.

[3] = ice formation in VS55 supplemented with sugars stored at −80 C (FIG. 7); format: physicochemical; settings: for sugar concentrations in VS55 that demonstrated ice (white) formation: 24 hours at −80° C.
Experimental: In this experiment 30 mL samples of VS55 with increasing concentrations of sugars were placed in 50 mL plastic tubes and stored in a −80 C mechanical storage freezer for 7 days. The tubes were checked daily for ice formation. […] After one day 0.4 to 0.6M trehalose and 0.5-0.6M sucrose were free of ice, while after 7 days 0.5-0.6M trehalose and 0.6M sucrose groups were free of ice. Lower concentrations of these sugars may still be used for ice-free vitrification but more rapid cooling and warming will be needed because the risk of ice formation will be greater and nanowarming rather than convection warming may be needed. Specifically, FIG. 7 is photograph illustrating the ice formation in VS55 supplemented with sugars at −80° C.: Top left: VS55 with 0-0.6M sucrose at 24 hours; Top right: VS55 with 0-0.6M trehalose at 24 hours. […] Higher concentrations were clear without ice. Bottom left: VS55 with 0-0.6M sucrose at 7 days; and Bottom right: VS55 with 0-0.6M trehalose at 7 days. After a week at −80° C. the highest concentrations of sugars are still free of ice.

visible ice formation [1] | ice formation during cooling and rewarming [1] | sugar concentrations in VS55 that demonstrated ice (white) formation [3] | sugar concentrations in VS55 free of ice ([3]; after 7 days at −80 C, 30 mL samples) | Structure (SMILES) | leaflet viability ([2]; 600 mM sucrose added to all three formulations (VS49, DP6, VS55)) | post-vitrification viability [2] | tissue viability [2] | leaflet viability ([2]; 600 mM trehalose added to VS49 and VS55)
prevents visible ice formation | no ice formation | 0 to 0.4 M | 0.6 M | OC[C@H]1O[C@@](CO)(O[C@H]2O[C@H](CO)[C@@H](O)[C@H](O)[C@H]2O)[C@@H](O)[C@@H]1O [sucrose] | increased | increases | significant increases | 
prevents visible ice formation | no ice formation | 0 to 0.6 M |  | OC[C@H]1O[C@H](O[C@H]2O[C@H](CO)[C@@H](O)[C@H](O)[C@H]2O)[C@H](O)[C@@H](O)[C@@H]1O [trehalose] |  | increases | significant increases | increased
